{"source": "patent US4276430A", "about": "“Analgesic and anti-inflammatory compounds and compositions containing same” (The Procter & Gamble Company, priority 1979, dated 1981)", "key": {"[1]": {"assay": "guinea pig ultraviolet light induced erythema test", "type": "in vivo, guinea pig (Hartley strain albino)", "details": "Cavia porcellus; topical; cumulative blanching grades over a 1-4 hour period after application; vehicle propylene glycol/ethanol; read-out: IC50 (concentration which inhibits UV-induced erythema by 50%)", "method": "The compositions of this invention are evaluated for their anti-inflammation properties using a guinea pig ultraviolet light induced erythema test.\nHartley strain albino guinea pigs weighing between 400 and 500 grams are clipped on the dorsal area and then depilated using a cream hair remover. 15 minutes after the application of the hair remover, the area is thoroughly washed using warm tap water and then dried with a towel. […] Ten minutes irradiation constitutes a minimal erythema dose. An adhesive tape strip is attached to the center of the guinea pig's back to retain an unirradiated portion of skin. About 1 hour after irradiation time, 3 preparations are applied on each side using a micropipette. The treated areas are about 1×4 cm in size and are aligned vertically from near the center back down the side. The degree of blanching is determined at hourly intervals.\nCompositions as below are formulated and tested.\n*Dihydroxybenzoic acid derivative\nComparisons of the anti-inflammatory activity of the dihydroxybenzoic acid derivatives are made by calculating their IC50 values."}, "[2]": {"details": "cited from earlier work"}, "[3]": {"details": "administered orally; aspirin-based products; cited from earlier work"}, "[4]": {"assay": "UV-induced erythema test in humans: anti-erythemic activity (blanching)", "type": "in vivo, human", "details": "for blanching response: first 3-4 hours after a single application"}, "[5]": {"assay": "UV-induced pain test in humans: analgesic activity (radiant heat pain stimulus)", "type": "in vivo, human", "details": "for Recovery of Treated Skin: 1% (w/w) in propylene glycol/ethanol", "source_text": "The UV-induced erythema and/or pain model consists of creating a burn with ultraviolet light (UV) and treating the resultant erythemal reaction with topical applications of the new drug formulations. At various time intervals, the degree of erythema and the pain tolerance response to radiant heat are monitored.\nExperiments have been designed to determine the effectiveness of benzyl 2,5-diacetoxybenzoate according to several parameters: treatment times, concentration of drug, repeated applications,duration of response, and vehicles.\nA total of 56 subjects were actually used in the UV-induced erythema and pain tests.\nThe compositions of the test formulations employed in these studies were as follows: […]\n(E) 0.01-0.5% (w/w) benzyl 2,5-diacetoxybenzoate in ethanol/propylene glycol/water (50/10/40, w/w/w);\n(G)* 0.025 to 2.5% (w/w) benzyl 2,5-diacetoxybenzoate in a cream vehicle;\nInduction of Erythema: Subjects were irradiated on a 2.5×20 cm area on their backs, using a bank of three 20S Westinghouse fluorescent lamps at a distance of 15 cm. Each subject received 2 to 4 MEDs of light (minimum erythemal dose) for these experiments.\nTreatment with Formulations: The UV-irradiated area was divided into 4 treatment sites. When liquid formulations were tested, up to 40 microliter were topically applied to each treatment site using an Eppendorf micropipet. When cream formulations were tested, no more than 100 microliter were topically applied to each treatment site using a 1 cc tuberculin syringe with no needle; the cream was rubbed into the skin with a gloved finger.\nEach site was treated no more than 4 times, and all treatments occurred within the 24-hour interval following UV-irradiation.\nA randomixed treatment sequence was used.\n2. Analgesic At suitable time\nElapsed time, in seconds,\nActivity intervals within\nto respond to a radiant\ntreated and untreated skin.\nSkin irradiated with 3-4 MEDs (minimal erythemal doses) of UV-B light (normal sunburn range) becomes hyperalgesic to radiant heat in about four hours.\nThe experimental design was regarded as randomized blocks, in which the subject is the \"block\". The variation between subjects with respect to erythema or analgesic response was accounted for as a source of variation in the Analysis of Variance (ANOVA)."}, "[6]": {"assay": "suppression of inflammation associated with arthritis (Mycobacterium butyricum, hind paw volume)", "type": "in vivo, rat (Male Sprague-Dawley)", "details": "topical 20 mg/kg/day, five weeks", "method": "This example illustrates the efficacy of the dihydroxybenzoic acid derivatives described herein for suppressing the inflammation associated with arthritis.\nMale Sprague-Dawley rats, weighing between 180-200 grams, are injected subcutaneously in the distal third of the tail with a suspension of 0.8 mg of heat-killed Mycobacterium butyricum in 0.1 ml of mineral oil. This injection introduces arthritis into the rat as evidenced by pedal edema (swelling). Measurement of the alleviation of the inflammation associated with the arthritis is made by determining the volume of the hind paws initially, two weeks later, and each subsequent week thereafter. The paw volume measurements are obtained by immersing each rat's hind paw up to a predetermined mark in a mercury bath connected to a Statham pressure transducer. The increase in pressure within the bath is proportional to the volume of the paw introduced.\nA solution of benzyl 2,5-diacetoxybenzoate is made. The solution comprises a 1:1 mixture of propylene glycol and ethanol and 2% benzyl 2,5-diacetoxybenzoate. In one group, each rat is treated topically with 20 mg/kg/day of the benzyl 2,5-diacetoxybenzoate solution. The changes in paw volume after each treatment are compared to the control rats."}, "[7]": {"details": "vehicle propylene glycol/ethanol (50/50, w/w)"}}}
{"smiles": "CCCOC(=O)c1cc(OC(C)=O)ccc1OC(C)=O", "note": "[C3 H7, Propyl 2,5-diacetoxybenzoate]", "values": [{"measurement": "IC50", "setting": "[1]", "result": 1100, "unit": "µM"}]}
{"smiles": "CC(=O)Oc1ccc(OC(C)=O)c(C(=O)OC(C)c2ccccc2)c1", "note": "(stereo not shown) [CH(C6 H5)CH3]", "values": [{"measurement": "IC50", "setting": "[1]", "result": 1200, "unit": "µM"}]}
{"smiles": "CCCCCCOC(=O)c1cc(OC(C)=O)ccc1OC(C)=O", "note": "[C6 H13, Hexyl 2,5-diacetoxybenzoate]", "values": [{"measurement": "IC50", "setting": "[1]", "result": 340, "unit": "µM"}]}
{"smiles": "CCCCCCCCCCCCOC(=O)c1cc(OC(C)=O)ccc1OC(C)=O", "note": "[C12 H25, Dodecyl 2,5-diacetoxybenzoate]", "values": [{"measurement": "IC50", "setting": "[1]", "result": 1200, "unit": "µM"}]}
{"smiles": "COC(=O)c1cc(OC(C)=O)ccc1OC(C)=O", "note": "[CH3]", "values": [{"measurement": "IC50", "setting": "[1]", "result": 2300, "unit": "µM"}]}
{"smiles": "CC(=O)Oc1ccccc1C(=O)O", "note": "[aspirin]", "values": [{"measurement": "skin irritation on repeated topical application", "setting": "[2]; repeated topical application of a high level", "result": "primary irritation and peeling of the superificial layers (the stratum corneum) of the skin"}, {"measurement": "concentration needed for topical analgesic effect", "setting": "[2]; topical", "result": "a relatively high concentration of aspirin must be topically applied before its effect as a topical analgesic is noted"}, {"measurement": "effect on inflammation in humans when applied topically", "setting": "[2]; topical", "result": "can delay and decrease inflammation in humans when applied topically"}, {"measurement": "gastric irritation and frank stomach bleeding, patients affected", "setting": "[3]", "result": "up to 70%"}]}
{"smiles": "CCCCCCCCOC(=O)c1cc(OC(C)=O)ccc1OC(C)=O", "note": "[C8 H17]", "values": [{"measurement": "IC50", "setting": "[1]", "result": 340, "unit": "µM"}]}
{"smiles": "CCCCCCCCCCOC(=O)c1cc(OC(C)=O)ccc1OC(C)=O", "note": "[C10 H21, Decyl 2,5-diacetoxybenzoate]", "values": [{"measurement": "IC50", "setting": "[1]", "result": 650, "unit": "µM"}]}
{"smiles": "CCCCC(CC)COC(=O)c1cc(OC(C)=O)ccc1OC(C)=O", "note": "(stereo not shown) [C2 H3 (C2 H5)C4 H9, 2'-ethylhexyl 2,5-diacetoxybenzoate]", "values": [{"measurement": "IC50", "setting": "[1]", "result": 5800, "unit": "µM"}]}
{"smiles": "CCCCOC(=O)c1cc(OC(C)=O)ccc1OC(C)=O", "note": "[C4 H9, n-Butyl 2,5-diacetoxybenzoate]", "values": [{"measurement": "IC50", "setting": "[1]", "result": 1200, "unit": "µM"}]}
{"smiles": "CC(=O)Oc1ccc(OC(C)=O)c(C(=O)OCc2ccccc2)c1", "note": "[Benzyl 2,5-diacetoxybenzoate]", "values": [{"measurement": "IC50", "setting": "[1]", "result": 400, "unit": "µM"}, {"measurement": "blanching response", "setting": "[4]; 0.01%", "result": "distinctly weaker"}, {"measurement": "blanching response", "setting": "[4]; 0.03-2.5%", "result": "very similar responses"}, {"measurement": "blanching response, multiple application compared with single application", "setting": "[4]; 1 to 2.5%, 1 to 4 times within 24 hours", "result": "did not produce an effect greater than obtained with a single application"}, {"measurement": "half-life of the response (time for the maximum response to diminish 50%)", "setting": "[4]; after drug treatment", "result": "about 9 hours"}, {"measurement": "time of maximum blanching response", "setting": "[4]; after drug treatment", "result": "2 to 3", "unit": "h"}, {"measurement": "effect of treatment time on blanching response", "setting": "[4]; application from a few minutes to 24 hours following UV-irradiation", "result": "the earlier a given treatment was made after UV-irradiation, the greater the blanching response"}, {"measurement": "vehicle effectiveness, peak blanching response: rank 1 (decreasing order)", "setting": "[4]; at a given concentration", "result": "propylene glycol/ethanol (50/50, w/w)"}, {"measurement": "vehicle effectiveness, peak blanching response: rank 2 (decreasing order)", "setting": "[4]; at a given concentration", "result": "ethanol/propylene glycol/water (50/10/40, w/w/w)=cream"}, {"measurement": "vehicle effectiveness, peak blanching response: rank 3 (decreasing order)", "setting": "[4]; at a given concentration", "result": "ethanol/water (80/20, w/w)"}, {"measurement": "anti-erythemic activity", "setting": "[4]; conclusion", "result": "has anti-erythemic activity"}, {"measurement": "duration of some degree of blanching", "setting": "[4]; higher concentrations, after treatment, dose-related", "result": "5 to 11", "unit": "h"}, {"measurement": "blanching response, repeated application", "setting": "[4]; low concentrations, e.g., 0.03%, 1 to 4 times within 24 hours", "result": "high blanching response"}, {"measurement": "antierythemic activity by vehicle", "setting": "[4]; propylene glycol/ethanol (50/50, w/w) vehicle", "result": "highest antierythemic activity"}, {"measurement": "Tests with Analgesic Responses", "setting": "[5]; 0.01% in Propylene Glycol/Ethanol (50/50, w/w)", "result": "1/6"}, {"measurement": "dose dependence of the analgesic response", "setting": "[5]; 0.01-1.0% in Propylene Glycol/Ethanol (50/50, w/w)", "result": "dose-dependent"}, {"measurement": "Tests with Analgesic Responses", "setting": "[5]; 0.1% in Propylene Glycol/Ethanol (50/50, w/w)", "result": "2/6"}, {"measurement": "analgesic activity, three applications compared with 2 or 1", "setting": "[5]; 0.25%", "result": "more effective than 2 or 1 applications"}, {"measurement": "analgesic activity, repeated application compared with single application", "setting": "[5]; 1%", "result": "failed to increase the level of analgesic activity effected by a single application"}, {"measurement": "time of maximum analgesic activity", "setting": "[5]; 1% (w/w) in propylene glycol/ethanol (50/50, w/w), treatment 2 to 6 hours after UV-irradiation, following treatment", "result": "2 to 4", "unit": "h"}, {"measurement": "duration of some analgesic effects", "setting": "[5]; 1% (w/w) in propylene glycol/ethanol (50/50, w/w), after treatment(s)", "result": "up to 10 hours"}, {"measurement": "Tests with Analgesic Responses", "setting": "[5]; 1.0% in Propylene Glycol/Ethanol (50/50, w/w)", "result": "9/12"}, {"measurement": "Recovery of Treated Skin", "setting": "[5]; 2-4 hours after treatment, 22 subjects, SE 0.5, normal minus non-treated skin 4.0", "result": 2.4, "unit": "s"}, {"measurement": "Recovery of Treated Skin", "setting": "[5]; 5-7 hours after treatment, 16 subjects, SE 0.4", "result": 1.6, "unit": "s"}, {"measurement": "Recovery of Treated Skin", "setting": "[5]; 8-10 hours after treatment, 6 subjects, SE 0.7", "result": 1.4, "unit": "s"}, {"measurement": "delivery of an efficacious dose into the skin, compared with propylene glycol/ethanol", "setting": "[5]; Ethanol/water (80/20), ethanol/propylene glycol/water (50/10/40), and a cream", "result": "somewhat less effective than propylene glycol/ethanol"}, {"measurement": "topical analgesic activity", "setting": "[5]; conclusion, rather severe and acute pain", "result": "does have topical analgesic activity for rather severe and acute pain"}, {"measurement": "return to normal pain tolerance", "setting": "[5]; in 8 out of the 12 tests, at least one concentration at one time point", "result": "≥ 80", "unit": "%"}, {"measurement": "analgesic action in non-irradiated skin", "setting": "[5]; non-irradiated skin", "result": "No evidence of analgesic action was found"}, {"measurement": "analgesic response by vehicle", "setting": "[5]; propylene glycol/ethanol (50/50, w/w) vehicle, compared with 4 vehicle systems", "result": "strongest analgesic activity"}, {"measurement": "analgesic activity", "setting": "[5]; skin treated 2 to 6 hours following UV-irradiation", "result": "Analgesic activity was demonstrated"}, {"measurement": "tests in which at least one concentration at one time point effected at least an 80% return to normal pain tolerance", "setting": "[5]; [7]", "result": "8 out of the 12"}, {"measurement": "tests with statistically significant analgesia", "setting": "[5]; [7]", "result": "9 out of 12"}, {"measurement": "reduction in pedal edema compared to non-treated control group", "setting": "[6]; 2% solution in 1:1 propylene glycol and ethanol", "result": "significant improvement compared to the non-treated control group"}, {"measurement": "reduction in pedal edema compared with aspirin 200 mg/kg/day oral", "setting": "[6]", "result": "comparable"}]}
{"smiles": "CCOC(=O)c1cc(OC(C)=O)ccc1OC(C)=O", "note": "[C2 H5]", "values": [{"measurement": "IC50", "setting": "[1]", "result": 1800, "unit": "µM"}]}
